Measured values taken from patent US5629340A, “Angiogenesis inhibitor and novel compound” (Tsumura & Co., priority 1993, dated 1997).
Read-outs that look alike come from different tables or passages of the source.

Experiments:
[1] = test system: HOME cells (human omental capillary endothelial cells); test: Tube formation of HOME cells induced by TGFα on type-1 collagen gel; format: cell-based; settings: for Tube formation remaining (%) at 10 µg/mL: Homo sapiens, Endothelial cell, final concentration 10 μg/ml, read-out: inhibition of tube formation induced by TGFα ("inhibited to"); for Total length of lumen/HPF: Table 7, non-treatment 0.551, control 1.561; for Total length of lumen/HPF / Total tube length/HPF: compound 10 μg/ml, TGFα 10 ng/ml, 3 days; for Total tube length/HPF: Table 6, non-treatment 0.616, control 2.045
Excerpt: (§1) An in-vitro angiogenesis models have been established, using human omental capillary endothelial cells (hereinafter referred to as "HOME cells"). One is the angiogenesis models in a process of wound healing formed when the HOME cells are damaged with a razor blade. Another one is a model of HOME cell migration, synthesis of a tissue plasminogen activation factor (t-PA), and HOME-cell tube formation, accelerated by TGFα.
The activity of the active ingredients to the tube formation of the HOME cells induced by TGFα was determined.
At first, 8 volume of a type 1 collagen solution (manufactured by Nitta Gelatin .), 1 volume of 10×M-199 and 1 volume of a reconstituted buffer) [200 mM Hepes, 0.05N sodium hydroxide and 260 mM sodium hydrogen carbonate] were mixed under ice cooling. The mixture was placed on plastic dishes (30 mm diameter, manufactured by Corning.) and allowed to stand still at 37° C. to make gel, thereby preparing a type-1 collagen gel.
Subsequently, the HOME cells were suspended in 10% FBS containing M-199 medium and then dispersed on the type 1 collagen gel mentioned above and incubated at 37° C.
When the HOME cells were incubated to confluent , they were transferred to 1% human serum containing M-199 mediums to which compounds (1), (2) and (4) to (12) (a final concentration: 10 μg/ml) were individually added together with TGFα (final concentration 10 ng/ml). These mediums were incubated for 3 days.
The HOME cells were also transferred to a 1% human serum containing M-199 medium with TGFα alone to prepare a control group and transferred to a 1% human serum containing M-199 medium to prepare a non-treatment group. They were also incubated for 3 days.
Two days after the incubation started, the culture mediums were exchanged. At three days, photographic picture of each dish was taken by a video camera (R5000H, Fuji, Tokyo), using a phase-contrast microscope at 200 magnification of the object. 8 views were taken for each dishes. The total tube length per one view formed by the HOME cells was measured by using a Cosmozone IS image analyzer (manufactured by Nikon).

[2] = test system: HOME cells (human omental capillary endothelial cells); test: Migration of wounded HOME cells (wound healing model), with or without TGFα; format: cell-based; parameters: activity: dose or concentration left out as unconfirmed; settings: Endothelial cell; for activity: 24 h, compound added, read-out: Cell-migration rate (% of non-treatment group); for inhibition at 10 µg/mL: TGFα-free medium, final concentration 10 μg/ml, approximately
Excerpt: as §1
Compound(s) as an active ingredient of the angiogenesis inhibitor of the present invention (hereinafter also simply refer:red to as "compound(s)") were evaluated with respect to an activity to cell migration with human HOME cells in which a wound healing had been made by a razor blade, and cell migration activity accelerated by TGFα.
The HOME cells to be used in this experiment were isolated from human omental fatty tissues and cultured in a M-199 medium containing 10% fetal bovine serum (FBS) over 3 to 5 generations.
TGFα was obtained from Collaborative Research Inc., Bedford, Ma.
The HOME cells were cultured as a monolayer on a collagen-coated plastic dish (35 mm .phi.) to confluent. The thus obtained HOME cells were wounded with a razor blade and then washed twice with a phosphate buffer saline solution (PBS). […] Further, HOME cells were cultured in 1% human serum containing M-199 medium with neither active ingredient nor TGFα at 37° C for 24 hours to prepare a non-treatment group.
On the dish on which the HOME cells were cultured, the numbers of migrated HOME cells were counted, which migrated to the exposed portion of the Collagen-coated plastic dish. A cell-migration rate was calculated, regarding the cell migration numbers of the non-treatment group as 100%.

[3] = test system: HOME cells co-cultured with human esophagus cancer cells (TE-1); test: Tube formation of HOME cells induced by human cancer cells (co-culture with TE-1 cells); format: cell-based; settings: Table 8; compound 10 μg/ml; TE-1 co-culture; non-treatment 0.348, control 1.551
Protocol: In a co-culture of the HOME cells and human cancer cells, the activity of the compounds to the tube formation of the HOME cells induced by the human cancer cells was determined. This experiment was carried out in accordance with the co-culture method described in Morisaki, Saito, et al., "Co-culture test system of vascular endothelial cells and tunica media smooth muscle cells".
The HOME cells on the type-1 collagen gel prepared in Experiment 2 and human esophagus cancer cells (TE-1) were co-cultured to assemble a tube formation assay system. More specifically, using a plate (manufactured by Corning Co.,) having 6 holes (each hole size: 38×7 mm) in the outer vessel, 2 ml of 10% FBS containing M-199 medium was placed to each hole. The TE-1 cells were cultured in this medium. Thereafter, the medium was replaced with 2 ml of 1% FBS containing M-199 mediums which respectively contained compounds (1) and (8). Also, the medium was replaced with 1% FBS containing M-199 medium alone.
On the other hand, culture plates equipped with a Millipore filter at the inner vessel (size: 30×7 mm) bottom, were prepared. The type-1 collagen gel was placed in the inner vessel. On each of the type-1 collagen gel, 2 ml of the HOME cells suspension in the 10% FBS containing M-199 medium were planted. […]
The total tube length in the HOME cells cultured was measured in the same manner as in Experiment 2.

[4] = test system: M-5076 (mouse ovarian reticulo sarcoma); test: In-vivo anti-tumor activity, M-5076 transplanted in C57BL6 mouse; settings: for Relative tumor proliferation rate (Trv/Crv(%)): day 21, control 100.0; for anti-tumor activity in vivo: in words
Protocol: In-vivo anti-tumor activity of the compounds of the present invention was tested.
M-5076 (mouse ovarian reticulo sarcoma, mouse ovary cancer) was intraperitoneally (i.p.) inoculated in C57BL6 mouse, and maintained by ip passage. The obtained ascites tumor cells werediluted with PBS (-) to cellular number of 2×10^7 cells/ml. 50 μl of the dilute solution (cellular number: 1×10^6) was subcutaneously (s.c.) transplanted to the right dorsal part of C57BL6 mouse (6 week old, female). From 7 days after the tumor cell inocutation, a sample was administrated to the mouse. The sample was prepared by suspending compounds (1) and (8) in 2% Tween 80 PBS (-) solution. The suspension was subcutaneously injected to a mouse in a dose of 100 μl per mouse. Three dosages, i.e., 400 mg/kg, 200 mg/kg and 100 mg/kg were set for the injection.
Mitomycin C (MMC) and Fumagillin Were employed in positive controls. MMC was intravascularly injected 4 times every two day. Other test samples and Fumagillin were intravascularly injected 6 times in total in a rate of 3 times/week. The test was carried out using N=9 in controls and N=5 in other groups.
Twenty one days after the inocutation of the tumor cells (14 days after the next day of the initiation of the sample injection), a relative tumor proliferation rate were examined to determine the anti-tumor effect of the samples.
The relative tumor proliferation rate are indicated by the following equation.
A significant difference test was performed by the Mann-Whitney U-Test. [formula]

[5] = 100 mg/kg, 6 injections, 3 times/week
[6] = 200 mg/kg, 6 injections, 3 times/week
[7] = 400 mg/kg, 6 injections, 3 times/week

Question: With `COc1cc(-c2oc(-c3cc(OC)c(O)c(OC)c3)c(C)c2C)cc(OC)c1O` [Compound 11, 2,5-bis(4'-hydroxy-3',5'-dimethoxyphenyl)-3,4-dimethylfuran] as the compound, how does the Tube formation remaining (%) at 10 µg/mL [1] read?
Answer: 50 to 80%

Question: What about the “Total length of lumen/HPF” value [1] of the same compound?
Answer: 0.817 10^3 μm

Question: And the activity ([2]; TGFα Free)?
Answer: 81.2%

Question: What about the activity ([2]; TGFα added) of the same compound?
Answer: 56.1%

Question: For `COc1cc(-c2oc(C)c(-c3ccc(O)c(OC)c3)c2C)ccc1O` [Compound 9, 2,4-bis(4-hydroxy-3-methoxyphenyl)-3,5-dimethylfuran], which Tube formation remaining (%) at 10 µg/mL [1] is on record?
Answer: 50 to 80%

Question: And the “Total length of lumen/HPF” value [1]?
Answer: 0.496 10^3 μm

Question: What about the activity ([2]; TGFα Free) of the same compound?
Answer: 63.3%

Question: And the activity ([2]; TGFα added)?
Answer: 73%

Question: With `COc1ccc(-c2oc(-c3ccc(OC)c(O)c3)c(C)c2C)cc1O` [Compound 8, 2,5-bis(3'-hydroxyl-4'-methoxyphenl)-3,4-dimethylfuran] as the compound, how does the “Total length of lumen/HPF” value [3] read?
Answer: 0.277 10^3 μm

Question: What about the Tube formation remaining (%) at 10 µg/mL [1] of the same compound?
Answer: 50 to 80%

Question: What about the “Total length of lumen/HPF” value [1] of the same compound?
Answer: 0.422 10^3 μm

Question: What about the activity ([2]; TGFα Free) of the same compound?
Answer: 69.4%

Question: And the activity ([2]; TGFα added)?
Answer: 44.2%

Question: And the inhibition at 10 µg/mL [2]?
Answer: 50 to 86%

Question: What about the “Relative tumor proliferation rate (Trv/Crv(%))” value [4, 5] of the same compound?
Answer: 59.4%

Question: And the “Relative tumor proliferation rate (Trv/Crv(%))” value [4, 6]?
Answer: 41.4%

Question: And the “Relative tumor proliferation rate (Trv/Crv(%))” value [4, 7]?
Answer: 37.4%

Question: What about the “anti-tumor activity in vivo” value [4] of the same compound?
Answer: significant anti-tumor activity in vivo

Question: `CO[C@@H]1[C@H](OC(=O)/C=C/C=C/C=C/C=C/C(=O)O)CC[C@]2(CO2)[C@H]1[C@@]1(C)O[C@@H]1CC=C(C)C` [Fumagillin, reference compound] was tested. Which “Relative tumor proliferation rate (Trv/Crv(%))” value ([4]; 30 mg/kg, 6 injections, 3 times/week) did it give?
Answer: 41.7%

Question: How did the “Total tube length/HPF” value [1] turn out when `COc1cc(-c2oc(-c3ccc(OC(C)=O)c(OC)c3)c(C)c2C)ccc1OC(C)=O` [Compound 4] was run?
Answer: 2.127 10^3 μm

Question: And the activity ([2]; TGFα Free)?
Answer: 50.2%

Question: And the activity ([2]; TGFα added)?
Answer: 60.4%

Question: How did the “Total length of lumen/HPF” value [3] turn out when `COc1cc(-c2oc(-c3ccc(O)c(OC)c3)c(C)c2C)ccc1O` [Compound 1] was run?
Answer: 0.250 10^3 μm

Question: What about the Tube formation remaining (%) at 10 µg/mL [1] of the same compound?
Answer: 50 to 80%

Question: And the “Total length of lumen/HPF” value [1]?
Answer: 0.337 10^3 μm

Question: And the activity ([2]; TGFα Free)?
Answer: 13.9%

Question: And the activity ([2]; TGFα added)?
Answer: 24%

Question: What about the inhibition at 10 µg/mL [2] of the same compound?
Answer: 50 to 86%

Question: And the “Relative tumor proliferation rate (Trv/Crv(%))” value [4, 5]?
Answer: 37.1%

Question: What about the “Relative tumor proliferation rate (Trv/Crv(%))” value [4, 6] of the same compound?
Answer: 37.4%

Question: What about the “Relative tumor proliferation rate (Trv/Crv(%))” value [4, 7] of the same compound?
Answer: 51.3%

Question: What about the “anti-tumor activity in vivo” value [4] of the same compound?
Answer: significant anti-tumor activity in vivo

Question: With `COc1cc(-c2oc(-c3ccc(O)c(OC)c3)c(CC(C)C)c2CC(C)C)ccc1O` [Compound 10, 2,5-bis(4'-hydroxy-3'-methoxyphenyl)-3,4-diisobutylfuran] as the compound, how does the Tube formation remaining (%) at 10 µg/mL [1] read?
Answer: 50 to 80%

Question: And the “Total length of lumen/HPF” value [1]?
Answer: 0.655 10^3 μm

Question: What does the source list for `Cc1c(-c2ccc3c(c2)OCO3)oc(-c2ccc3c(c2)OCO3)c1C` [Compound 6, 3,4-dimethyl-2,5-bis(3,4-methylenedioxyphenyl)-furan]?
Answer: Tube formation remaining (%) at 10 µg/mL [1]: 40 to 60%; Total tube length/HPF [1]: 1.240 10^3 μm; activity ([2]; TGFα Free): 45.2%; activity ([2]; TGFα added): 59.9%; inhibition at 10 µg/mL [2]: 50 to 86%

Question: What does the source list for `COc1ccc(-c2oc(-c3ccc(OC)c(OC)c3)c(C)c2C)cc1OC` [Compound 2]?
Answer: Tube formation remaining (%) at 10 µg/mL [1]: 40 to 60%; Total tube length/HPF [1]: 1.115 10^3 μm; activity ([2]; TGFα Free): 69%; activity ([2]; TGFα added): 68.2%

Question: Which Tube formation remaining (%) at 10 µg/mL [1] does the source give for `Cc1c(-c2ccc3c(c2)OCCO3)oc(-c2ccc3c(c2)OCCO3)c1C` [Compound 7, 3,4-dimethyl-2,5-bis(3,4-ethylenedioxyphenyl)furan] here?
Answer: 40 to 60%

Question: And the “Total tube length/HPF” value [1]?
Answer: 1.195 10^3 μm

Question: What about the activity ([2]; TGFα Free) of the same compound?
Answer: 33.3%

Question: And the activity ([2]; TGFα added)?
Answer: 31.4%

Question: For `CO[C@@]12[C@H](COC(N)=O)C3=C(C(=O)C(C)=C(N)C3=O)N1C[C@@H]1N[C@@H]12` [MMC, Mitomycin C, reference compound], which “Relative tumor proliferation rate (Trv/Crv(%))” value ([4]; 3.2 mg/kg, intravascular, 4 times every two days) is on record?
Answer: 7.9%

Question: With `Cc1c(-c2ccc(O)c(O)c2)oc(-c2ccc(O)c(O)c2)c1C` [Compound 3, 3,4-dimethyl-2,5-bis(3,4-dihydroxyphenyl)furan] as the compound, how does the activity ([2]; TGFα Free) read?
Answer: 52.7%

Question: And the activity ([2]; TGFα added)?
Answer: 73.1%

Question: What does the source list for `CCOC(=O)c1c(-c2ccc(O)c(OC)c2)oc(-c2ccc(O)c(OC)c2)c1C(=O)OCC` [Compound 12, Diethyl 2,5-bis(4'-hydroxy-3'-methoxyphenyl)furan-3,4-dicarboxylate]?
Answer: Tube formation remaining (%) at 10 µg/mL [1]: 50 to 80%; Total length of lumen/HPF [1]: 0.736 10^3 μm; activity ([2]; TGFα Free): 72.7%; activity ([2]; TGFα added): 58.4%
